Values joined by “and” are separate entries in the source; they are usually repeats but may differ in a detail not shown here. Equal entries are not always repeated.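 Following 48 hours of exposure in 96-well plates, responses at five concentrations were used to interpolate endpoints linearly. At the GI50, growth is halved. At the TGI there is no net growth.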
Experiments:
Assay in all cases: growth of human tumour cells (NCI), 48 h
COLO 205 colon = test system: COLO 205 colon
HCT-116 colon = test system: HCT-116 colon
RPMI-8226 leukemia = test system: RPMI-8226 leukemia
HOP-62 NSCLC = test system: HOP-62 NSCLC
OVCAR-4 ovarian = test system: OVCAR-4 ovarian
SF-295 CNS = test system: SF-295 CNS
NCI-H522 lung = test system: NCI-H522 lung
HT29 colon = test system: HT29 colon
M14 melanoma = test system: M14 melanoma
EKVX NSCLC = test system: EKVX NSCLC

Row | Structure (SMILES) | TGI (COLO 205 colon) | TGI (HCT-116 colon) | TGI (RPMI-8226 leukemia) | TGI (HOP-62 NSCLC) | TGI (OVCAR-4 ovarian) | TGI (SF-295 CNS) | TGI (NCI-H522 lung) | TGI (HT29 colon) | TGI (M14 melanoma) | TGI (EKVX NSCLC) | GI50 (HCT-116 colon) | GI50 (HT29 colon) | GI50 (EKVX NSCLC) | GI50 (HOP-62 NSCLC) | GI50 (OVCAR-4 ovarian) | GI50 (SF-295 CNS) | GI50 (NCI-H522 lung)
1 | O=C(CC(Cl)=C(Cl)Cl)c1ccccc1 | 78.9 µM | 45.2 µM | 41.9 µM | > 100 µM | > 100 µM | > 100 µM | 69.6 µM | > 100 µM | > 100 µM | – | – | – | – | – | – | – | –
2 | CCCCCCCCCCCCCCCCCCOCC(O)COP(=O)(O)OCC1OC(n2ccc(N)nc2=O)C(O)C1O (centres undefined) | 29.5 µM | > 100 µM | 52.9 µM | 48.9 µM | > 100 µM | 68.8 µM | 41.8 µM | 50.7 µM | – | > 100 µM | – | – | – | – | – | – | –
3 | Cc1ccc(Nc2nc3c(=O)n(C)c(=O)n(C)c3nc2Nc2ccc(C)cc2)cc1 | 16 µM | 22.1 µM | > 100 µM | 40.9 µM | 23.9 µM | 45.7 µM | 2.42 µM | 23.4 µM | – | 30 µM | – | – | – | – | – | – | –
4 | Cc1cccc(N/C(Sc2ccccc2)=C(/C(Cl)=C(Cl)Cl)[N+](=O)[O-])c1 | 29 µM | 28.7 µM | > 100 µM | 40.1 µM | 38.6 µM | 36.2 µM | – | 43.1 µM | 36.7 µM | 42.7 µM | – | – | – | – | – | – | –
5 | CCOC1CC(C)N(C(=O)c2ccccc2)O1 (centres undefined) | – | > 100 µM | – | > 100 µM | – | > 100 µM | – | > 100 µM | > 100 µM | > 100 µM | – | – | – | – | – | – | –
6 | N#Cc1c(O)c(/C=N/c2ncccn2)c(=O)n2c1[nH]c1ccccc12 | > 100 µM | > 100 µM | > 100 µM | – | > 100 µM | > 100 µM | > 100 µM | > 100 µM | > 100 µM | > 100 µM | – | – | – | – | – | – | –
7 | COc1ccccc1C1c2cc3c(cc2OC(N2CCOCC2)C1C)OCO3 (centres undefined) | – | 26.2 µM | 45.7 µM | 35.3 µM | – | 35.5 µM | 30.1 µM | 40.9 µM | 38.7 µM | 89.6 µM | – | – | – | – | – | – | –
8 | CC(Oc1ccc(OCC2CCCCC2)cc1)C(=O)NCc1ccco1 (centres undefined) | – | 76.3 µM | – | – | > 100 µM | – | 35.3 µM | 46.6 µM | 42.6 µM | – | – | – | – | – | – | – | –
9 | Cc1nc2sccn2c1/C=C1/C(=O)Nc2cccc(Cl)c21 | > 100 µM | > 100 µM | > 100 µM | > 100 µM | – | > 100 µM | > 100 µM | > 100 µM | > 100 µM | > 100 µM | – | – | – | – | – | – | –
10 | NC(=O)NC12CC3CC(CC(F)(C3)C1)C2 | > 100 µM | > 100 µM | > 100 µM | > 100 µM | – | – | > 100 µM | > 100 µM | > 100 µM | > 100 µM | – | – | – | – | – | – | –
11 | CC(=O)CC1=C(OC(C)C)C2(OCCO2)C1O (centres undefined) | > 100 µM | > 100 µM | – | > 100 µM | > 100 µM | > 100 µM | > 100 µM | > 100 µM | > 100 µM | > 100 µM | – | – | – | – | – | – | –
12 | CCOC(=O)NN(C(=O)OCC)c1c(C)cc(C)cc1C | > 100 µM | > 100 µM | > 100 µM | – | > 100 µM | – | > 100 µM | > 100 µM | > 100 µM | > 100 µM | – | – | – | – | – | – | –
13 | CC(=O)O[C@H]1CCC2[C@@H]3CCC4c5nonc5CC[C@]4(C)C3CC[C@@]21C (some centres undefined) | > 10 µM | > 100 µM | – | > 10 µM | > 10 µM | > 10 µM | > 10 µM | > 100 µM | > 10 µM | > 100 µM | > 100 µM | > 100 µM | > 100 µM | – | – | – | –
14 | COc1cc2c(c(OC)c1OC)-c1ccc(SC)cc1C(O)CC2 (centres undefined) | 0.179 µM | > 100 µM | > 100 µM and 45.9 µg/mL | – | > 100 µM | 83.7 µM | 235 nM and 33.7 µg/mL | – | > 100 µM and 34.9 µg/mL | > 100 µM | – | – | – | – | – | – | –
15 | COc1ccc2nc3cccc([N+](=O)[O-])c3c(NCCCO)c2c1 | – | 1.01 µM | 0.219 µM | 0.0157 µM and 0.0193 µM | 0.0312 µM and 0.0859 µM | – | 0.00662 µM | 0.00183 µM | 0.00227 µM | – | – | – | – | 0.00282 µM | 0.0104 µM and 0.023 µM | 0.00799 µM and 0.0319 µM | 0.00165 µM
16 | COc1ccc(-c2oc3c(OC)c(OC)cc(O)c3c(=O)c2OC)cc1 | > 100 µM | > 100 µM | – | > 100 µM | > 100 µM | > 100 µM | > 100 µM | > 100 µM | > 100 µM | > 100 µM | – | – | – | – | – | – | –
17 | CC[C@@]1(O)C(=O)OCc2c1cc1n(c2=O)Cc2c-1nc1ccccc1c2/C=N/NC(=O)c1ccc(N)cc1 | > 100 µM | 12 µM | > 100 µM | 1.61 µM | > 100 µM | 14.7 µM | – | > 100 µM | 1.23 µM | > 100 µM | – | – | – | – | – | – | –
18 | O=C(c1cc2c(c3ccccc13)NC1(CCCCC1)N=C2C(F)(F)F)C(F)(F)F | 18.1 µM | 12.6 µM | – | > 100 µM | 14.9 µM | 10.9 µM | 6.95 µM | 13.4 µM | 18.1 µM | 15.7 µM | – | – | – | – | – | – | –
19 | Cc1ccc(N/C(SCc2ccccc2)=C(\C(Cl)=C(Cl)Cl)[N+](=O)[O-])c(C)c1 | 31.6 µM | 37 µM | > 100 µM | > 100 µM | 54 µM | 94.9 µM | – | > 100 µM | 34 µM | > 100 µM | – | – | – | – | – | – | –
20 | CC(=O)OC(Cc1c(O)c2c(C)cccc2oc1=O)C(C)(C)O (centres undefined) | > 100 µM | > 100 µM | > 100 µM | > 100 µM | – | > 100 µM | > 100 µM | > 100 µM | > 100 µM | > 100 µM | – | – | – | – | – | – | –
21 | CC(=O)OC(C)(C)CCC(=O)[C@](C)(O)[C@H]1[C@H](O)C[C@@]2(C)[C@@H]3CCc4c(cc(OC5OC(CO)C(O)C(O)C5O)c(O)c4C)C3(C)C(=O)C[C@]12C (some centres undefined) | > 100 µM | > 100 µM | – | > 100 µM | > 100 µM | > 100 µM | > 100 µM | > 100 µM | > 100 µM | > 100 µM | – | – | – | – | – | – | –
22 | CC1=C(C(=O)N[C@@H](CC(C)C)C(=O)O)N2C(=O)[C@@H](NC(=O)C(N)c3ccccc3)[C@H]2SC1 (some centres undefined) | > 100 µM | – | > 100 µM | – | > 100 µM | > 100 µM | > 100 µM | – | > 100 µM | > 100 µM | – | – | – | – | – | – | –
23 | N#CNC(=NCCc1c[nH]c2ccccc12)Oc1ccccc1 | > 100 µM | > 100 µM | > 100 µM | > 100 µM | > 100 µM | > 100 µM | – | > 100 µM | > 100 µM | > 100 µM | – | – | – | – | – | – | –

Reference: PubChem BioAssay (NCI)
